From patent US20260150837A1, “GLUCAN DERIVATIVES FOR MICROBIAL CONTROL” (Nutrition & Biosciences USA 4, Inc., priority 2021, published 2026)

Test system: Escherichia coli ATCC 25922
Experiment: ASTM E3160-18 antibacterial efficacy of treated fabric, with ASTM E3162-18 wash durability
Assay type: cell-based
Details: cotton, use level 250-2000 ppm by row; for AM Activity after 25 Real Time Washes: after 25 real time washes (ASTM-E3162-18); for Initial AM Activity: before washing
Experimental: (Procedure 1A) Exhaust Method: Alpha-1,6-glucan ether compounds (e.g., as prepared in Materials/Methods) were exhaust-applied using Werner Mathis AG BFA-12 exhaust equipment. Individual formulation baths comprising desired concentrations of a glucan ether polymer in water were prepared. Each fabric sample (20 g) was loosely folded horizontally and placed into a test canister, followed by addition of 200 ml of a bath solution. The canisters were then closed and secured to the rotating wheel of the equipment. The rotation speed of the wheel was set to 35 rpm, switching from clockwise to counterclockwise modes at 1-minute intervals. In each case, the instrument, with the samples already loaded, would first heat up at a selected rate of heating until the target temperature was reached, maintaining the temperature for preset durations, before cooling down to initial temperature. Once the exhaustion process was complete, all the fabric samples were removed from the exhaust canisters and passed through padding equipment (Fanyuan Instruments, DW2010A) set to a pressure of 8.4 kg to squeeze out the excess water. Lastly, each sample was dried in a MATHIS lab dryer LTE for 5 minutes at 120° C.
(Procedure 1B) Padding Method: Alpha-1,6-glucan ether compounds (e.g., as prepared in Materials/Methods) were also applied to fabric samples via a padding process using a MATHIS HF or Fanyuan Instruments (DW2010A) padder. Dry fabric was submerged into a bath containing an aqueous solution of glucan ether compound at a desired concentration in water and passed through padder rollers to squeeze out (applied pressure equaled 3.1 bar) excess treatment solution. Each fabric sample was dried and cured in a MATHIS lab dryer LTE for 5 minutes at 120° C. Each glucan solution was prepared to account for water weight pick-up by each fabric type and their exhaust potential.
(Procedure 2A) ASTM E3160-18: In some cases, an alpha-1,6-glucan ether compound herein was considered to be antimicrobially efficient if it imparted a >3 log10 reduction of bacterial growth as tested by the American Society for Testing and Materials (ASTM) method E3160-18 (Quantitative Evaluation of the Antibacterial Properties of Porous Antibacterial Treated Articles, incorporated herein by reference) at a use level ≤5000 ppm. The ASTM E3160 method was performed as follows: The day before the test, a culture of Escherichia coli of the American Type Culture Collection (ATCC) 25922 was inoculated by transferring a single colony from tryptic soy agar (TSA), using a sterile loop, into a tryptic soy broth (TSB). On the day of the experiment (next day), each fabric sample (treated with an alpha-1,6-glucan ether herein or a control compound, e.g., prepared by Procedure 1A above) was cut into three 0.40-g swatches (about 1×1 inch). Each fabric swatch was placed into a 50-mL sterile specimen cup. On the same day, bacterial/working inoculum was prepared by diluting the overnight culture of E. coli into phosphate buffer supplemented with TSB (1:500) and 0.05% TRITON X-100 to obtain a bacterial concentration that was between 2.5×10^5 colony forming units (CFU)/mL and 1.0×10^6 CFU/mL, with a target concentration of 6×10^5 CFU/mL. All samples were inoculated by applying 0.2 mL of working inoculum in several aliquots directly onto the fabric surface, and were allowed to incubate for 24 hours at 37° C. Samples were neutralized with 10 mL Dey-Engley (D-E) neutralizing buffer and enumerated in triplicate in 96-well plates containing 180 μL TSB by transferring 20 μL of neutralized sample to the top well of the 96-well plates and serially diluting 20 μL down the plate.

Row | Compound | AM Activity after 25 Real Time Washes [log10 log10 reduction] | Initial AM Activity [log10 log10 reduction]
1 | CCCCCCCCCCCCCCCCCC[N+](C)(C)CCC[Si](O)(O)O.[Cl-] [Comparative 3, 3-(trihydroxysilyl)propyldimethyl-octadecyl ammonium chloride] | <1 | 5
2 | CCCCCCCCCCCC(=O)N[C@@H](CCCNC(=N)N)C(=O)OCC [Comparative 5, Lauroyl arginine ethyl ester] | <1 | 5
3 | CCCCCCCCCCCC[N+](C)(C)CC(O)CCl.[Cl-] (centres unmarked) [Comparative 6, 3-chloro-2-hydroxypropyl dodecyldimethylammonium chloride] | <2 | 5
4 | CCCCCCCCCCCC[N+](C)(C)C.[Cl-] [Comparative 7, dodecyltrimethylammonium chloride] | <1 | 5
